One assay deals with NF-κB p100/p52. In words: Phospho explorer antibody microarray of LPS-treated RAW 264.7 cells: NF-κB p100/p52. The class given is cell-based. The note with it: 200 μM peptide 1 hour then LPS 1 μg/mL 30 minutes, compared to cells treated with only LPS. The protocol:
(§1) RAW 264.7 cells were starved in 0.5% FBS for 2 hours and treated with 200 μM of the peptide of SEQ ID NO: 1 for 1 hour, and then inflammation was induced at 37° C. for 30 minutes with LPS (1 μg/mL). Cell lysates of untreated cells (NT), cells treated with LPS, and cells treated with SEQ ID NO: 1 and LPS were applied to a Phospho explorer antibody microarray from Full Moon Biosystems. The phospho microarray is capable of recognizing 1318 antibodies related to 30 signaling systems. A standard-size coated glass microscope slide was coated with each antibody. =It was scanned with a GenePix 4100A scanner (Axon Instrument, Foster City, CA, USA). Data were analyzed with Genowiz 4.0™ (Ocimum Biosolutions, Hyderabad, India). The phosphorylation ratio was calculated as follows.
(§2) Formula for calculating phosphorylation ratio in each antibody: Phosphorylation ratio=(phosphorylation value of experimental group/non-phosphorylation value of experimental group)/(phosphorylation value of control group/non-phosphorylation value of control group)

Another assay has as its system IκBα. In words: Phospho explorer antibody microarray of LPS-treated RAW 264.7 cells: IκBα. The class given is cell-based. The note with it: 200 μM peptide 1 hour then LPS 1 μg/mL 30 minutes, compared to cells treated with only LPS. As to the method: as §1, §2
The target of another assay is T1, HDAC5 protein (Homo sapiens, UniProt Q9UQL6).
T1 construct: purchased Abcam
In words: Biacore T200 binding affinity to immobilised HDAC5 protein. The note with it: CM5 chip, 1:1 binding model.

For assay [1], the system named is TNBS-induced colitis rats. In words: TNBS colitis-induced animal model. Format: in vivo. The protocol:
In order to determine whether or not the peptide according to the present invention has the effect of treating inflammatory colitis in vivo, the effect of treating colitis in a colitis-induced animal model was detected. Before induction of colitis, rats were allowed to drink water freely, although food was not supplied thereto for 24 hours. The rats were lightly anesthetized with ether. A rubber cannula (o.d., 2 mm) was inserted into the colon, the end of which was about 8 cm away from the anus and was located near the splenic flexure. 2,4,6-trinitro benzene sulfonic acid (TNBS; Sigma Chemical Co, St Louis, Missouri, USA) dissolved in a 50% (v/v) ethanolic aqueous solution was injected into the colon through the rubber cannula (15 mg/0.3 mL/rat). 72 hours after induction of colitis, the peptide of SEQ ID NO: 1 (30 mg/kg) was intraperitoneally injected once a day, and after administration for 7 days, the rats were sacrificed. The weight of the rats was measured at 9 AM every day, and the length of the colon was measured from the cecum to the anus using a vernier caliper (Mitutoyo, Japan) after rat sacrifice.
The extracted large intestine was frozen and stored at −70° ° C., the mucous membrane tissue was collected from the muscle layer of the large intestine, the weight of the mucous membrane tissue was measured, and 10 mg of the mucous membrane tissue was lysed in a triple wash buffer (50 mM Tris-HCl, pH 8.0, 150 mM NaCl, 0.1% sodium deoxycholate and 1 mM phenylmethysulfonyl and homogenized. Then, p40, TNF-α, and IL-12 were assayed using an ELISA kit (R&D, Minneapolis, MN, USA).

Structures are written as SMILES.

T1 sequence (Q9UQL6 whole entry, species assumed): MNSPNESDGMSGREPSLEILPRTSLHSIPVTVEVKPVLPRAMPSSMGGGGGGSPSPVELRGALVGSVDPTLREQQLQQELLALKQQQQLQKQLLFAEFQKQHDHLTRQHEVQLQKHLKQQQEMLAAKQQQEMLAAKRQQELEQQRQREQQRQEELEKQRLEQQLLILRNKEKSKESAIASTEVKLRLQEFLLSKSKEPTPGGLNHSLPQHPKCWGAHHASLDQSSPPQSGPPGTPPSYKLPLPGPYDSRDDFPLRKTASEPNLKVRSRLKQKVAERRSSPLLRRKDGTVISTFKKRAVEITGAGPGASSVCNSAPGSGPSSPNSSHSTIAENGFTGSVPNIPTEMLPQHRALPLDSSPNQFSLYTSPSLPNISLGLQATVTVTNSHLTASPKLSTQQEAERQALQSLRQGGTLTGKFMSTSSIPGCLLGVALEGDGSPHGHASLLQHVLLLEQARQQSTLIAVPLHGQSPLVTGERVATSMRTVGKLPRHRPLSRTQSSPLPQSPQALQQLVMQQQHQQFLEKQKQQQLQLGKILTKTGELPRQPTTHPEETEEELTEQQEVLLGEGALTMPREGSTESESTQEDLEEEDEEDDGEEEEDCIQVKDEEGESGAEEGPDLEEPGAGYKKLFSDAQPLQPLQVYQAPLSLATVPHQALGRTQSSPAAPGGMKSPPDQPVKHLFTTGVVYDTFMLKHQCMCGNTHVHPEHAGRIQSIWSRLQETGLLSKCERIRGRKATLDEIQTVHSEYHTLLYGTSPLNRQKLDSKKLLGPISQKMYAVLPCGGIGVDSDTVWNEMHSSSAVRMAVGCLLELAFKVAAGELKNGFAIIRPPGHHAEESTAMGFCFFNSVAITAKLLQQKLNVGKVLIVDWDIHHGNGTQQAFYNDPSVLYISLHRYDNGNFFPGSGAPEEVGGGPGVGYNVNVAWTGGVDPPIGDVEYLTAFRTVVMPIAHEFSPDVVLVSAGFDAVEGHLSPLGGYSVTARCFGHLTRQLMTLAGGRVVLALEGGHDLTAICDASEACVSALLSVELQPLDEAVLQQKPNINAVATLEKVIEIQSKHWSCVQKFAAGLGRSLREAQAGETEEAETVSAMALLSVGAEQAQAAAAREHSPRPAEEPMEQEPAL
Experimental for HDAC5 protein: For this purpose, HDAC5 protein (Abcam, MA, USA) was dissolved in sodium acetate buffer (pH 4.5), and was bound to a dextran-covered sensor chip surface (CM5 chip) using N-hydroxysuccinimide (NHS) and N-ethyl-N0-(3-dimethylaminopropyl)-carbodiimide hydrochloride (EDAC) as crosslinkers. The unreacted active group of dextran was blocked by the addition of ethanolamine (1M) thereto. The number of HDAC5 binding to the chip was measured as 4440RU (1000 RU=1 ng/mm^2). […] Rate constants for association (ka) and dissociation (kd), and a dissociation constant (KD) were calculated using BIAevaluation software and a 1:1 binding model.

For the molecule `C[C@@H](O)[C@H](NC(=O)[C@H](CO)NC(=O)[C@H](CS)NC(=O)[C@H](CCCCN)NC(=O)CN)C(=O)N[C@@H](CCCNC(=N)N)C(=O)NCC(=O)N[C@@H](CCCNC(=N)N)C(=O)N[C@@H](CCCCN)C(=O)N[C@@H](CS)C(=O)N[C@@H](CS)C(=O)N[C@@H](CCCNC(=N)N)C(=O)N[C@@H](CCCNC(=N)N)C(=O)N[C@@H](CCCCN)C(=O)N[C@@H](CCCCN)C(=O)O` [SEQ ID NO: 1], the “Phosphorylation ratio of NF-κB p100/p52” value with NF-κB p100/p52 stood at 0.451. Moreover, the “Phosphorylation ratio of IκBα” value with IκBα is 0.509. In addition, on HDAC5 protein, the kd was determined as 0.07264 s⁻¹. In addition, the kon on HDAC5 protein (read-out: ka) was 108000 M⁻¹ s⁻¹. In addition, in assay [1] (30 mg/kg intraperitoneally), the “Expression of IL-12 in large intestine mucous membrane tissue (ELISA)” value is “decreased”, the “Expression of TNF-α in large intestine mucous membrane tissue (ELISA)” value is given as “decreased” and the “Expression of p40 in large intestine mucous membrane tissue (ELISA)” value is listed as “decreased”. In assay [1] (30 mg/kg intraperitoneally once a day, 7 days, 8th day), the “Visual observation of large intestine” value is recorded as “appeared similar to the normal group (CON), indicating that colitis was remarkably suppressed”.

For the origin of these results see patent publication US12486303B2, “Use of peptide for inhibiting functions and expressions of multiple disease biomarkers” (NIBEC CO., LTD., priority 2018, dated 2025).
